Patent US7550629B2, “Trifluoromethyl-containing phenylsulfonamide beta amyloid inhibitors” (Wyeth, priority 2006, dated 2009)
pEC50: −log10 of the molar value.

Tests used:
beta amyloid 42 = assay: Aβ40/42 ELISA Assay: Aβ42; type: cell-based; settings: Cricetulus griseus; CHO cells carrying the APP-REP-NL plasmid, 22 hours, sandwich ELISA of medium
Experimental: (§1) Pharmacology: Aβ40/42 ELISA Assay
(§2) Compounds are diluted from DMSO stocks to 2 μM and below in a cell culture medium. Compounds are then applied to CHO cells carrying the APP-REP-NL plasmid [Sudhir et. al, J. Biol. Chem. 267:25602-25608 (1992)] for a period of 22 hours. After the conditioning period, medium is collected, diluted in assay buffer containing protein, and samples, controls, and synthetic peptide standards are incubated on a prepared ELISA plate. Using a sandwich ELISA with antibodies specifically directed against the carboxyl terminus of beta amyloid 40 or 42 [analogous to the method reported by Haugabook et al., J. Neurosci. Methods 108:171-179 (2001) but using goat anti-mouse IgGl (source: Southern Biotech) as the anchor, 6E10 as the capture antibody (Source: SENETEK), rabbit antiαβ40 and antiαβB42 (source: QCB) and APL-donkey anti-rabbit IgG (H+L, source: Southern Biotech) as the detection antibody], the effect of the compound treatment on the cellular production of extracellular beta amyloid is quantified. Cells treated with compound are subsequently incubated in cell culture medium containing […]. After a short incubation period, MTS/medium containing plates are read in a spectrophotometer to determine the extent to which compound toxicity affected the cell's metabolism and ability to synthesize beta amyloid.
(§3) Test Samples: compound samples are supplied as 20 mM stock solutions in a 100% DMSO solution.
(§4) APP-REP-NL cells: Qualified cell lines are carried from week to week using 1:100 dilutions and are cultured in DMEM supplemented with 1× antibiotic/antimycotic, 200 μg/ml of G418 antibiotic, and 10% certified fetal calf serum. Cells are also banked in liquid nitrogen. Periodically, beta amyloid production is assessed, and cells are either kept in culture or replaced with progenitors at full expression.
(§5) Antibodies: Are from certified lots that have already been qualified in this assay. Antibodies are stored in small frozen aliquots at −80° C. that are thawed and used.
(§6) A compound is considered active if it has an EC50 for Aβ 40 reduction of <100 μM and no toxicity at doses in the vicinity the EC50.

beta amyloid 40 = assay: Aβ40/42 ELISA Assay: Aβ40; type: cell-based; settings: Cricetulus griseus; CHO cells carrying the APP-REP-NL plasmid, 22 hours, sandwich ELISA of medium
Experimental: as §1, §2, §3, §4, §5, §6

Compound | melting point [°C] | pEC50 (beta amyloid 42) | pEC50 (beta amyloid 40)
O=S(=O)(N[C@H](CO)C(CC(F)(F)F)CC(F)(F)F)c1ccc(Cl)cc1 [Example 2, 4-Chloro-N-[(1S)-4,4,4-trifluoro-1-hydroxymethyl-2-(2,2,2-trifluoro-ethyl)-butyl]-benzenesulfonamide] | 186 to 187 | 6.69 | 6.48
O=S(=O)(NC(CO)C(C(F)(F)F)C(F)(F)F)c1cccc(F)c1 (centres unmarked) [Example 27, 3-fluoro-N-(3,3,3-trifluoro-1-hydroxymethyl-2-trifluoromethyl-propyl)-benzenesulfonamide] | – | 4.92 | 5.04
CC(C)c1ccc(S(=O)(=O)NC(CO)C(C(F)(F)F)C(F)(F)F)cc1 (centres unmarked) [Example 10, 4-isopropyl-N-[3,3,3-trifluoro-1-(hydroxymethyl)-2-(trifluoromethyl)propyl]benzenesulfonamide] | – | 4.36 | 4.75
C[C@@H]([C@@H](CO)NS(=O)(=O)c1ccc(Cl)c(Cl)c1)C(F)(F)F [Example 46, 3,4-Dichloro-N-[(1S,2S)-3,3,3-trifluoro-1-(hydroxymethyl)-2-methylpropyl]benzenesulfonamide] | – | 5.32 | 5.29
O=S(=O)(NC(CO)C(C(F)(F)F)C(F)(F)F)c1ccccc1F (centres unmarked) [Example 28, 2-fluoro-N-(3,3,3-trifluoro-1-hydroxymethyl-2-trifluoromethyl-propyl)-benzenesulfonamide] | – | 4.35 | 4.63
O=S(=O)(NC(CO)C(C(F)(F)F)C(F)(F)F)c1ccc(OC(F)F)cc1 (centres unmarked) [Example 7, 4-(difluoromethoxy)-N-[3,3,3-trifluoro-1-(hydroxymethyl)-2-(trifluoromethyl)propyl]benzenesulfonamide] | – | 5.40 | 5.35
O=S(=O)(NC(CO)C(C(F)(F)F)C(F)(F)F)c1cccc(Cl)c1Cl (centres unmarked) [Example 37, 2,3-dichloro-N-(3,3,3-trifluoro-1-hydroxymethyl-2-trifluoromethyl-propyl)-benzenesulfonamide] | – | 4.85 | 4.96
O=[N+]([O-])c1cc(S(=O)(=O)NC(CO)C(C(F)(F)F)C(F)(F)F)ccc1Cl (centres unmarked) [Example 5, 4-Chloro-3-nitro-N-(3,3,3-trifluoro-1-hydroxymethyl-2-trifluoromethyl-propyl)-benzenesulfonamide] | – | 4.11 | 4.34
O=S(=O)(NC(CO)C(C(F)(F)F)C(F)(F)F)c1ccc(Br)cc1 (centres unmarked) [Example 31, 4-bromo-N-(3,3,3-trifluoro-1-hydroxymethyl-2-trifluoromethyl-propyl)-benzenesulfonamide] | – | 6.04 | 6.05
Cc1cc(S(=O)(=O)NC(CO)C(C(F)(F)F)C(F)(F)F)ccc1F (centres unmarked) [Example 25, 4-Fluoro-3-methyl-N-(3,3,3-trifluoro-1-hydroxymethyl-2-trifluoromethyl-propyl)-benzenesulfonamide] | – | 5.08 | 5.18
O=S(=O)(NC(CO)C(CC(F)(F)F)CC(F)(F)F)c1ccc(Cl)cc1 (centres unmarked) [Example 45, 4-Chloro-N-[4,4,4-trifluoro-1-hydroxymethyl-2-(2,2,2-trifluoro-ethyl)-butyl]-benzenesulfonamide] | – | 6.30 | 6.29
CCc1ccc(S(=O)(=O)NC(CO)C(C(F)(F)F)C(F)(F)F)cc1 (centres unmarked) [Example 9, 4-ethyl-N-[3,3,3-trifluoro-1-(hydroxymethyl)-2-(trifluoromethyl)propyl]benzenesulfonamide] | – | 5.17 | 5.14
COc1ccc(S(=O)(=O)NC(CO)C(C(F)(F)F)C(F)(F)F)cc1 (centres unmarked) [Example 11, 4-methoxy-N-[3,3,3-trifluoro-1-(hydroxymethyl)-2-(trifluoromethyl)propyl]benzenesulfonamide] | – | 5.19 | 5.17
O=S(=O)(NC(CO)C(C(F)(F)F)C(F)(F)F)c1ccc(Cl)cc1 (centres unmarked) [Example 21, 4-chloro-N-(3,3,3-trifluoro-1-hydroxymethyl-2-trifluoromethyl-propyl)-benzenesulfonamide] | – | 6.03 | 6.00
O=S(=O)(NC(CO)C(C(F)(F)F)C(F)(F)F)c1ccc(OC(F)(F)F)cc1 (centres unmarked) [Example 20, N-(3,3,3-trifluoro-1-hydroxymethyl-2-trifluoromethyl-propyl)-4-trifluoromethoxy-benzenesulfonamide] | – | 5.19 | 5.07
O=S(=O)(NC(CO)C(C(F)(F)F)C(F)(F)F)c1ccccc1Cl (centres unmarked) [Example 30, 2-chloro-N-(3,3,3-trifluoro-1-hydroxymethyl-2-trifluoromethyl-propyl)-benzenesulfonamide] | – | 4.61 | 4.59
O=S(=O)(NC(CO)C(C(F)(F)F)C(F)(F)F)c1ccc(Cl)c(C(F)(F)F)c1 (centres unmarked) [Example 4, 4-Chloro-N-(3,3,3-trifluoro-1-hydroxymethyl-2-trifluoromethyl-propyl)-3-trifluoromethyl-benzenesulfonamide] | – | 4.05 | 4.42
